Columns and labels:
[1] = tested on: HT-29 colorectal cancer cells; assay: Cell viability (MTT) assay, single agents and combinations with erlotinib; format: cell-based, human; settings: for combination effect of the two drugs: erlotinib in the presence of low doses of MEK inhibitor, HT-29, simultaneous or sequential
Method: (§1) Cell respiration, as an indicator of cell viability, is measured by the reduction of 3-(4,5-Dimethylthiazol-2-yl)-2,5-diphenyltetrazolium bromide (MTT) to formazan. HT-29 cells are maintained in McCoy's 5a medium (modified) containing 10% fetal bovine serum and are seeded to 96-well microtiter dishes at 2,000 cells/well in a 100 μl volume while MDA-MB-468 cells are maintained in Dulbecco's modified Eagle's medium containing 10% fetal bovine serum and are seeded to 96-well microtiter dishes at 4,000 cells/well in a volume 100 μl. On the following day, the cells are exposed to compounds in an additional 100 μl at the indicated concentrations and cultured for 5 days. After the addition of 50 μl/well of a 5 mg/ml MTT stock in Dulbecco's phosphate-buffered saline (PBS), the cells are incubated for an additional 2.5 hours at 37° C. Thereafter, the medium is removed and 50 μl of 100% ethanol is added to each well to dissolve the formazan crystals. The conversion of MTT into formazan by viable cells is assessed by a microplate reader at 570 nm. The results are presented as a percentage of the viability of untreated cells (control), which are regarded as 100% viable.
(§2) Dose-response interactions (antagonism, additive, and synergism) of two drugs are expressed as the Fa-Cl (the fraction affected by dose-the combination index) plot using the method of Chou and Talalay described in Advances in Enzyme Regulation, Volume 22, pp. 27-55 (1984) processed by the computer software Calcusyn (BIOSOFT, Cambridge, UK). This program provides objective computerized evaluation procedures. For mutually non-exclusive drugs that have totally independent modes of action, Cl<1, =1, and >1 indicates synergism, additive effect, and antagonism, respectively. The data are supported by classic isobolograms made by the same program. The isobolograms can be generated at different effect levels, e.g., ED50, ED70 and ED90. When it is generated at ED50, if the combination data points for Fa=0.5 falls on the diagonal, an additive effect is indicated; if it falls on the lower left, synergism is indicated; and if it falls on the upper right, antagonism is indicated. If a single drug is not very effective, and an ED50 can not be achieved, the results Fa-Cl or Isobologram can not be provided. In this case, the results are shown as classic dose-effect relationship charts.

[2] = tested on: MDA-MB-468 breast cancer cells; assay: as above; format: cell-based, human; settings: for growth suppression / growth inhibitory effect: single agent treatment, in vitro, MDA-MB-468
Method: as §1, §2

C[C@@H](c1ccccc1)[C@@H](C(=O)Nc1ccc(I)cc1F)N1C(=O)N[C@H](c2ccc(OCCO)cc2)C1=O [Example 48, (2S,3S)—N-(2-Fluoro-4-iodo-phenyl)-2-{(R)-4-[4-(2-hydroxy-ethoxy)-phenyl]-2,5-dioxo-imidazolidin-1-yl}-3-phenyl-butyramide]
combination effect of the two drugs [1]: synergistic effects

C[C@@H](c1ccccc1)[C@@H](C(=O)Nc1ccc(I)cc1F)N1C(=O)N[C@H](c2ccc(OC[C@H](O)CO)cc2)C1=O [Example 56, (2S,3S)-2-{(R)-4-[4-((R)-2,3-Dihydroxy-propoxy)-phenyl]-2,5-dioxo-imidazolidin-1-yl}-N-(2-fluoro-4-iodo-phenyl)-3-phenyl-butyramide]
combination effect of the two drugs [1]: synergistic effects | combination index (Cl) values, Isobolograms ([2]; combination with erlotinib, ED50, ED75, ED90, all three treatment schedules, CalcuSyn): < 0.5 | combination index (Cl), Fa-Cl plot ([2]; combination with erlotinib, Fa >40%, simultaneous or sequential addition, MTT on day 5, CalcuSyn): < 1 | combination effect of the two drugs ([2]; combination with erlotinib, MDA-MB-468, simultaneous or sequential): synergism | growth suppression / growth inhibitory effect [2]: significantly less growth inhibitory effect

C[C@@H](c1ccccc1)[C@@H](C(=O)Nc1ccc(I)cc1Cl)N1C(=O)N[C@H](c2ccc(OC[C@H](O)CO)cc2)C1=O [Example 114, (2S,3S)—N-(2-Chloro-4-iodo-phenyl)-2-{(R)-4-[4-((R)-2,3-dihydroxy-propoxy)-phenyl]-2,5-dioxo-imidazolidin-1-yl}-3-phenyl-butyramide]
combination effect of the two drugs [1]: synergistic effects

C#Cc1cccc(Nc2ncnc3cc(OCCOC)c(OCCOC)cc23)c1 [erlotinib, N-(3-ethynylphenyl)-6,7-bis(2-methoxyethoxy)-4-quinazolinamine, reference compound]
EC50 ([1]; Homo sapiens, single agent, HT-29, ED50 can not be reached): > 30 µM | sensitivity of the cells to single agent treatment ([1]; single agent, HT-29 (braf mutation)): very resistant | growth suppression / growth inhibitory effect [2]: significant growth suppression

— US20080207563A1, “METHOD FOR INHIBITING PROLIFERATION OF TUMOR CELLS” (priority 2007, published 2008)
